From patent publication US8013006B2 come the findings set out here.

Where two headings read alike, the source gives them in different places.

One data set concerns HCV replicon. Put plainly: microbe, parasite or virus in culture. It is filed as cell-based. Particulars: Hepatitis C virus, 48 h.

On to `CCn1c(C#Cc2ccc(C(F)(F)F)cc2)c(C#N)c2ccc(O)cc21` [Compound 185], for which the melting point lay within 157 to 160 °C. The IC50 with HCV replicon (read-out: Replicon IC5Os μM) fell in the range of 0.5 to 2 µM.

The compound `CCn1c(C#Cc2ccccc2)c(C#N)c2ccc(O)cc21` [Compound 188] showed a melting point of 209 to 212 °C. The IC50 in the data set with HCV replicon (read-out: Replicon IC5Os μM) fell in the range of 0.5 to 2 µM.

Take `CCn1c(C#Cc2cccc(O)c2)c(C#N)c2ccc(C(F)(F)F)cc21` [Compound 196]: the melting point lay within 187 to 189 °C. The IC50 in the data set with HCV replicon (read-out: Replicon IC5Os μM) was in the range of 0.5 to 2 µM.

The compound `CCn1c(C#Cc2ccc(N)cc2)c(C#N)c2ccc(C(F)(F)F)cc21` [Compound 200] registered a melting point of 187 to 189 °C. For the same compound, in the data set on HCV replicon (read-out: Replicon IC5Os μM), the IC50 lay within 0.5 to 2 µM.

As for `CCn1c(C#Cc2ccc(N(C)C)cc2)c(C#N)c2ccc(C(F)(F)F)cc21` [Compound 201], the melting point was 147 to 150 °C. Moreover, in the data set with HCV replicon (read-out: Replicon IC5Os μM), the IC50 was 0.5 to 2 µM.

Compound `CCn1c(C#Cc2cccc(NC(C)=O)c2)c(C#N)c2ccc(OC)cc21` [Compound 205] returned a melting point of 181 to 184 °C. In addition, in the data set on HCV replicon (read-out: Replicon IC5Os μM), the IC50 fell in the range of 0.5 to 2 µM.

In turn, `CCC(=O)Nc1cccc(C#Cc2c(C#N)c3ccc(OC)cc3n2CC)c1` [Compound 206] registered a melting point of 187 to 191 °C. Also, in the data set on HCV replicon (read-out: Replicon IC5Os μM), the IC50 was 0.5 to 2 µM.

Compound `CCn1c(C#Cc2cccc(NC(=O)C(C)C)c2)c(C#N)c2ccc(OC)cc21` [Compound 207] gave a melting point of 179 to 183 °C. The IC50 in the data set on HCV replicon (read-out: Replicon IC5Os μM) was 0.5 to 2 µM.

With `CCn1c(C#Cc2cccc(NC(=O)C3CC3)c2)c(C#N)c2ccc(OC)cc21` [Compound 211], the melting point was 186 to 191 °C. Also, the IC50 in the data set on HCV replicon (read-out: Replicon IC5Os μM) was 0.5 to 2 µM.

For the compound `CCn1c(C#Cc2cccc(NC(=O)C3CCC3)c2)c(C#N)c2ccc(OC)cc21` [Compound 213], the melting point lay within 165 to 168 °C. Moreover, the IC50 in the data set on HCV replicon (read-out: Replicon IC5Os μM) lay within 0.5 to 2 µM.

In turn, `CCn1c(NC(=O)C2CC2)c(C#N)c2ccc(OC)cc21` [Compound 216] showed a melting point of 261 °C. Besides, the IC50 with HCV replicon (read-out: Replicon IC5Os μM) fell in the range of 0.5 to 2 µM.

Take `CCn1c(NC(=O)OCC(C)C)c(C#N)c2ccc(OC)cc21` [Compound 217]: the melting point was 272 to 273 °C. Further, the IC50 in the data set with HCV replicon (read-out: Replicon IC5Os μM) is under 0.5 µM.

`CCn1c(C#Cc2cccc(NC=O)c2)c(C#N)c2ccc(OC)cc21` [Compound 218] displayed a melting point of 174 to 177 °C. Further, in the data set on HCV replicon (read-out: Replicon IC5Os μM), the IC50 lay in the range of 0.5 to 2 µM.

With `CCn1c(C#Cc2cccc(NC(=O)COC)c2)c(C#N)c2ccc(OC)cc21` [Compound 219], the melting point lay within 145 to 149 °C. Further, the IC50 in the data set with HCV replicon (read-out: Replicon IC5Os μM) is 0.5 to 2 µM.

Compound `CCn1c(C#Cc2cccc(NC(=O)NCCCl)c2)c(C#N)c2ccc(OC)cc21` [Compound 221] gave a melting point of 195 to 200 °C. The IC50 in the data set with HCV replicon (read-out: Replicon IC5Os μM) lay within 0.5 to 2 µM.

On to `COc1ccc2c(C#N)c(C#Cc3ccc(C(C)(C)C)cc3)[nH]c2c1` [Compound 233], for which the melting point fell in the range of 232 to 234 °C. Moreover, in the data set on HCV replicon (read-out: Replicon IC5Os μM), the IC50 is 0.5 to 2 µM.

`CCn1c(-c2ccc(NS(C)(=O)=O)cc2)c(C#N)c2cc(OC)ccc21` [Compound 243] showed a melting point of 194 to 198 °C. Besides, in the data set with HCV replicon (read-out: Replicon IC5Os μM), the IC50 is under 0.5 µM.

For `CCCS(=O)(=O)Nc1ccc(-c2c(C#N)c3ccc(OC)cc3n2CC)cc1` [Compound 251], the melting point was 186 to 187 °C. Moreover, the IC50 with HCV replicon (read-out: Replicon IC5Os μM) fell in the range of 0.5 to 2 µM.

As to `CCn1c(-c2ccc(NS(=O)(=O)CCCCl)cc2)c(C#N)c2ccc(OC)cc21` [Compound 252], the melting point lay in the range of 176 to 177 °C. For the same compound, the IC50 in the data set on HCV replicon (read-out: Replicon IC5Os μM) lay in the range of 0.5 to 2 µM.

In turn, `CCn1c(-c2ccc(OCCNS(=O)(=O)CC)cc2)c(C#N)c2ccc(OC)cc21` [Compound 269] registered a melting point of 153 to 158 °C. In addition, in the data set on HCV replicon (read-out: Replicon IC5Os μM), the IC50 was in the range of 0.5 to 2 µM.

`CCn1c(-c2cccc(S(=O)(=O)NC)c2)c(C#N)c2ccc(OC)cc21` [Compound 331] had a melting point of 160 to 165 °C. Besides, the IC50 in the data set with HCV replicon (read-out: Replicon IC5Os) lay within 0.5 to 2 µM.

Regarding `CCn1c(-c2ccc3c(c2)oc(=O)n3C)c(C#N)c2ccc(OC)cc21` [Compound 341], the melting point lay within 227 to 230 °C. The IC50 with HCV replicon (read-out: Replicon IC5Os) is 0.5 to 2 µM.

`CCS(=O)(=O)Nc1ccc(-c2c(C#N)c3ccc(OC)cc3n2C)cc1` [Compound 345] registered a melting point of 191 to 192 °C. Besides, the IC50 in the data set on HCV replicon (read-out: Replicon IC5Os) fell in the range of 0.5 to 2 µM.

Regarding `CCCn1c(-c2ccc(NS(C)(=O)=O)cc2)c(C#N)c2ccc(OC)cc21` [Compound 346], the melting point was in the range of 178 to 180 °C. Moreover, the IC50 with HCV replicon (read-out: Replicon IC5Os) was under 0.5 µM.

`CCn1c(-c2ccc(NS(=O)(=O)CC)cc2)c(C#N)c2ccc(C(F)(F)F)cc21` [Compound 366] had a melting point of 223 to 225 °C. Besides, in the data set with HCV replicon (read-out: Replicon IC5Os), the IC50 is under 0.5 µM.

`CCCS(=O)(=O)Nc1ccc(-c2c(C#N)c3ccc(C(F)(F)F)cc3n2CC)cc1` [Compound 367]: the melting point fell in the range of 225 to 227 °C. Further, the IC50 in the data set on HCV replicon (read-out: Replicon IC5Os) lay within 0.5 to 2 µM.

The compound `CCn1c(-c2ccc(NS(=O)(=O)CCCCl)cc2)c(C#N)c2ccc(C(F)(F)F)cc21` [Compound 369] displayed a melting point of 174 to 177 °C. For the same compound, in the data set with HCV replicon (read-out: Replicon IC5Os), the IC50 was in the range of 0.5 to 2 µM.

In the case of `CCn1c(-c2ccc(S(N)(=O)=O)cc2)c(C#N)c2cc(Cl)ccc21` [Compound 408], the melting point lay within 231 to 235 °C. Besides, in the data set with HCV replicon (read-out: Replicon IC5Os), the IC50 is 0.5 to 2 µM.

In the case of `CCOc1ccc2c(C#N)c(-c3ccc(NS(C)(=O)=O)cc3)n(C)c2c1` [Compound 413], the melting point lay in the range of 184 to 185 °C. The IC50 in the data set on HCV replicon (read-out: Replicon IC5Os) was under 0.5 µM.

Take `CCOc1ccc2c(C#N)c(-c3ccc(NS(C)(=O)=O)cc3)n(CC)c2c1` [Compound 415]: the melting point was 163 to 165 °C. Also, the IC50 with HCV replicon (read-out: Replicon IC5Os) was under 0.5 µM.

With `CCOc1ccc2c(C#N)c(-c3ccc(NS(=O)(=O)CC)cc3)n(CC)c2c1` [Compound 416], the melting point was 173 to 175 °C. In addition, in the data set with HCV replicon (read-out: Replicon IC5Os), the IC50 is under 0.5 µM.

For `CCCn1c(-c2ccc(NS(=O)(=O)CC)cc2)c(C#N)c2ccc(OCC)cc21` [Compound 418], the melting point fell in the range of 183 to 184 °C. For the same compound, in the data set on HCV replicon (read-out: Replicon IC5Os), the IC50 was under 0.5 µM.

As for `CCn1c(-c2ccc(NC(C)=O)cc2)c(C#N)c2ccc(C(F)(F)F)cc21` [Compound 420], the melting point lay in the range of 241 to 243 °C. Besides, the IC50 with HCV replicon (read-out: Replicon IC5Os) was in the range of 0.5 to 2 µM.

In turn, `CCC(=O)Nc1ccc(-c2c(C#N)c3ccc(C(F)(F)F)cc3n2CC)cc1` [Compound 422] yielded a melting point of 259 to 261 °C. For the same compound, in the data set on HCV replicon (read-out: Replicon IC5Os), the IC50 lay within 0.5 to 2 µM.

Compound `CCn1c(-c2ccc(S(=O)(=O)NC)cc2)c(C#N)c2cc(Cl)ccc21` [Compound 430] came in with a melting point of 180 to 186 °C. Further, the IC50 with HCV replicon (read-out: Replicon IC5Os) is 0.5 to 2 µM.

As for `CCn1c(-c2ccc(N/C(C)=C/C#N)cc2)c(C#N)c2ccc(OC)cc21` [Compound 456], the melting point was in the range of 157 to 159 °C. Besides, the IC50 in the data set on HCV replicon (read-out: Replicon IC5Os) lay in the range of 0.5 to 2 µM.

Take `CCn1c(-c2ccc(S(N)(=O)=O)cc2)c(C#N)c2cc(-c3cccc(OC)c3)ccc21` [Compound 461]: the melting point fell in the range of 200 to 205 °C. Further, the IC50 in the data set with HCV replicon (read-out: Replicon IC5Os) is under 0.5 µM.

The compound `CCn1c(-c2ccc(S(=O)(=O)NC)cc2)c(C#N)c2cc(-c3cccc(OC)c3)ccc21` [Compound 462] yielded a melting point of 135 to 140 °C. Moreover, the IC50 in the data set on HCV replicon (read-out: Replicon IC5Os) was under 0.5 µM.

In turn, `CCOc1ccc2c(C#N)c(-c3ccc(NS(=O)(=O)CC)cc3)n(CC(C)C)c2c1` [Compound 470] displayed a melting point of 178 to 180 °C. Also, the IC50 with HCV replicon (read-out: Replicon IC5Os) was under 0.5 µM.

Usually melting point stands for the temperature of the solid-liquid transition.
